Source: patent US8691816B2, “Pyrrole inhibitors of S-nitrosoglutathione reductase as therapeutic agents” (N30 Pharmaceuticals, Inc., priority 2008, dated 2014)
Read-outs that look alike come from different tables or passages of the source.

Legend:
[1] = system: mouse model of ovalbumin (OVA)-induced asthma; assay: Experimental asthma model: methacholine (MCh)-induced bronchoconstriction/airway hyper-reactivity (Penh) in ovalbumin (OVA)-induced asthma; format: in vivo; details: single IV dose 0.1 mg/kg, 48 h prior to MCh, read-out: area under the curve (AUC) for Penh response as percent of vehicle control
[2] = system: mouse model of ovalbumin (OVA)-induced asthma; assay: Experimental asthma model: eosinophil infiltrate in bronchioalveolar lavage fluid (BALF); format: in vivo
Description: (§1) A mouse model of ovalbumin (OVA)-induced asthma was used to screen GSNOR inhibitors for efficacy against methacholine (MCh)-induced bronchoconstriction/airway hyper-reactivity. This is a widely used and well characterized model that presents with an acute, allergic asthma phenotype with similarities to human asthma. Efficacy of GSNOR inhibitors were assessed using a prophylactic protocol in which GSNOR inhibitors were administered prior to challenge with MCh. Bronchoconstriction in response to challenge with increasing doses of MCh was assessed using whole body plethysmography (Penh; Buxco). The amount of eosinophil infiltrate into the bronchioalveolar lavage fluid (BALF) was also determined as a measure of lung inflammation. The effect of GSNOR inhibitors were compared to vehicles and to Combivent (inhaled; IH) as the positive control.
(§2) OVA (500 μg/ml) in PBS was mixed with equal volumes of 10% (w/v) aluminum potassium sulfate in distilled water and incubated for 60 min. at room temperature after adjustment to pH 6.5 using 10 N NaOH. After centrifugation at 750×g for 5 min, the OVA/alum pellet was resuspended to the original volume in distilled water. Mice received an intraperitoneal (IP) injection of 100 μg OVA (0.2 mL of 500 μg/mL in normal saline) complexed with alum on day 0. Mice were anesthetized by IP injection of a 0.2-mL mixture of ketamine and xylazine (0.44 and 6.3 mg/mL, respectively) in normal saline and were placed on a board in the supine position. Two hundred fifty micrograms (100 μl of a 2.5 mg/ml) of OVA (on day 8) and 125 μg (50 μl of 2.5 mg/ml) OVA (on days 15, 18, and 21) were placed on the back of the tongue of each animal.
After measurement of airway hyper-reactivity, the mice were exsanguination by cardiac puncture, and then BALF was collected from either both lungs or from the right lung after tying off the left lung at the mainstem bronchus. Total BALF cells were counted from a 0.05 mL aliquot, and the remaining fluid is centrifuged at 200×g for 10 min at 4° C. Cell pellets were resuspended in saline containing 10% BSA with smears made on glass slides. Eosinophils were stained for 5 min. with 0.05% aqueous eosin and 5% acetone in distilled water, rinsed with distilled water, and counterstained with 0.07% methylene blue.
(§3) GSNOR inhibitors were reconstituted in phosphate buffered saline (PBS), pH 7.4, at concentrations ranging from 0.00005 to 3 mg/mL. GSNOR inhibitors were administered to mice (10 mL/kg) as a single dose either intravenously (IV) or orally via gavage. Dosing was performed from 30 min. to 24 h prior to MCh challenge. Effect of GSNOR inhibitors were compared to PBS vehicle dosed in the same manner.
Area under the curve values for Penh across baseline, saline, and increasing doses of MCh challenge were calculated using GraphPad Prism 5.0 (San Diego, Calif.) and expressed as a percent of the respective (IV or orally administered) vehicle control. Statistical differences among treatment groups and the respective vehicle control group within each study were calculated using one-way ANOVA, Dunnetts (JMP 8.0, SAS Institute, Cary, N.C.).

[3] = system: OVA sensitized mice, methacholine-induced bronchial hyper-reactivity; assay: GSNOR inhibition assay in an in vivo animal model: OVA mouse model of asthma, methacholine challenge, Penh by whole body plethysmograph; details: 1 mg/kg, 10 mg/kg or 30 mg/kg intravenously 24 hours prior
Description: In an effort to determine if similar observations would manifest if GSNOR were inhibited pharmacologically by a GSNOR inhibitor, an OVA mouse model (i.e., the wild-type model of Que et al.) was used. In this study, OVA sensitized mice were administered 1 mg/kg, 10 mg/kg or 30 mg/kg of Compound 1 intravenously at 24 hours prior to being placed in a whole body plethysmograph (Buxco Research Systems, Wilmington, N.C.) and provided with fresh air.
Subject animals were then challenged with an aerosol of increasing dosages of the bronchoconstrictive agent methacholine, a pharmacologic agent commonly used in determining the degree of bronchial hyper-reactivity in experimental subjects. In this study mice were exposed to an increasing concentration of methacholine, each dose being presented for 3 minutes, during which time readings were taken. Doses of methacholine were 0 mg/ml, 5 mg/ml, 20 mg/ml, and 50 mg/ml. The degree of bronchial hyper-reactivity was measured as the ‘Enhanced Pause’ (Penh), a unit-less index of airway hyper-reactivity (Dohi et al., Lab Invest. 79(12):1559-1571, 1999).

[4] = system: mouse model of ovalbumin (OVA)-induced asthma; assay: Experimental asthma model: methacholine (MCh)-induced bronchoconstriction/airway hyper-reactivity (Penh) in ovalbumin (OVA)-induced asthma; format: in vivo; details: for response vs control in vivo at 0.1 mg/kg: single IV dose 0.1 mg/kg; for efficacy against experimental asthma (attenuation of MCh induced bronchoconstriction): administered intravenously (IV); for response vs control in vivo at 1 mg/kg: single IV dose 1 mg/kg; for response vs control in vivo at 30 mg/kg: single oral dose 30 mg/kg; for efficacy against experimental asthma (attenuation of MCh induced bronchoconstriction and pulmonary inflammation): administered intravenously (IV) or orally; for response vs control in vivo at 10 mg/kg: single IV dose 10 mg/kg
Description: as §1, §2
In vivo airway responsiveness to methacholine was measured 24 h after the last OVA challenge in conscious, freely moving, spontaneously breathing mice with whole body plethysmography using a Buxco chamber (Wilmington, N.C.). Mice were challenged with aerosolized saline or increasing doses of methacholine (5, 20 and 50 mg/mL) generated by an ultrasonic nebulizer for 2 min. The degree of bronchoconstriction was expressed as enhanced pause (Penh), a calculated dimensionless value, which correlates with the measurement of airway resistance, impedance, and intrapleural pressure in the same mouse. Penh readings were taken and averaged for 4 min. after each nebulization challenge. Penh was calculated as follows: Penh=[(Te/Tr−1)×(PEF/PIF)], where Te is expiration time, Tr is relaxation time, PEF is peak expiratory flow, and PIF is peak inspiratory flow×0.67 coefficient. The time for the box pressure to change from a maximum to a user-defined percentage of the maximum represents the relaxation time. The Tr measurement begins at the maximum box pressure and ends at 40%.
as §3
Combivent was used as the positive control in all studies. Combivent (Boehringer Ingelheim) was administered to the lung using the inhaler device supplied with the product, but adapted for administration to mice, using a pipet tip. Combivent was administered 48 h, 24 h, and 1 h prior to MCh challenge. Each puff (or dose) of Combivent provided a dose of 18 μg ipatropium bromide (IpBr) and 103 μg albuterol sulfate or approximately 0.9 mg/kg IpBr and 5 mg/kg albuterol.
Area under the curve values for Penh across baseline, saline, and increasing doses of MCh challenge were calculated using GraphPad Prism 5.0 (San Diego, Calif.) and expressed as a percent of the respective (IV or orally administered) vehicle control.

[5] = single IV dose 1 mg/kg, 24 h prior to MCh
[6] = Mus musculus, 24 h prior to MCh, read-out: area under the curve (AUC) for Penh response as percent of vehicle control
[7] = single oral dose 30 mg/kg, 24 h prior to MCh

Compound | efficacy against experimental asthma (attenuation of MCh induced bronchoconstriction) [4] | reduction of eosinophil infiltration into the BALF [2, 5] [%] | response vs control in vivo at 1 mg/kg [4, 6] [%] | reduction of eosinophil infiltration into the BALF [2, 7] [%] | response vs control in vivo at 30 mg/kg [4, 6] [%] | efficacy against experimental asthma (attenuation of MCh induced bronchoconstriction and pulmonary inflammation) [4] | further results
Cc1cc(C(N)=O)ccc1-n1c(CCC(=O)O)ccc1-c1ccc(-n2ccnc2)cc1 [Compound 1, 3-(5-(4-(1H-imidazol-1-yl)phenyl)-1-(4-carbamoyl-2-methyl-phenyl)-1H-pyrrol-2-yl)propanoic acid] | efficacious | – | – | – | – | – | response vs control in vivo at 0.1 mg/kg [1]: 64.4 ± 55%; reduction of eosinophil infiltration into the BALF ([2]; single IV dose 0.01 mg/kg, 24 h prior to MCh): 98%; broncho-constrictive responses (Penh) to methacholine challenge compared with vehicle-only dosed animals [3]: lower broncho-constrictive responses; ED50 ([4]; Mus musculus, iv, read-out: ED50, dose demonstrating 50% reduction in Penh response): 0.011 ± 0.003 mg/kg; response vs control in vivo at 0.01 mg/kg ([4]; Mus musculus, single IV dose 0.01 mg/kg, 24 h prior to MCh, read-out: area under the curve (AUC) for Penh response as percent of vehicle control): 42.1 ± 2.8%; response vs control in vivo at 0.1 mg/kg ([4]; Mus musculus, 1 h prior to MCh, read-out: area under the curve (AUC) for Penh response as percent of vehicle control): 76.4 ± 6.6%
Cc1cc(C(N)=O)ccc1-n1c(CCC(=O)O)ccc1-c1ccc(-n2ccnc2C)cc1 [Compound 3, 3-(1-(4-carbamoyl-2-methyl-phenyl)-5-(4-(2-methyl-1H-imidazol-1-yl)phenyl)-1H-pyrrol-2-yl)propanoic acid] | efficacious | 46 | 71 ± 8.6 | – | – | – | –
COc1ccc(-c2ccc(CCC(=O)O)n2-c2ccc(C(N)=O)cc2C)cc1 [Compound 9, 3-(1-(4-carbamoyl-2-methylphenyl)-5-(4-methoxy-phenyl)-1H-pyrrol-2-yl)propanoic acid] | – | 92 | 65.3 ± 5.9 | 100 | 24.6 ± 3 | efficacious | –
Cc1cc(C(N)=O)ccc1-n1c(CCC(=O)O)ccc1-c1ccc(Br)cc1 [Compound 12, 3-(5-(4-bromophenyl)-1-(4-carbamoyl-2-methylphenyl)-1H-pyrrol-2-yl)propanoic acid] | efficacious | – | – | – | – | – | –
COc1cc(Cl)ccc1-c1ccc(CCC(=O)O)n1-c1ccc(C(N)=O)cc1C [Compound 116, 3-(1-(4-carbamoyl-2-methylphenyl)-5-(4-chloro-2-methoxy-phenyl)-1H-pyrrol-2-yl)propanoic acid] | – | 100 | 60.2 ± 7.9 | 100 | 26.7 ± 1.4 | efficacious | reduction of eosinophil infiltration into the BALF ([2]; single IV dose 0.1 mg/kg, 24 h prior to MCh): 79%; reduction of eosinophil infiltration into the BALF ([2]; single IV dose 10 mg/kg, 30 min. prior to MCh): 94%; reduction of eosinophil infiltration into the BALF ([2]; single IV dose 10 mg/kg, 24 h prior to MCh): 100%; response vs control in vivo at 10 mg/kg ([4]; Mus musculus, 0.5 h, 30 min. prior to MCh, read-out: area under the curve (AUC) for Penh response as percent of vehicle control): 35.2 ± 9.3%; response vs control in vivo at 0.1 mg/kg [4, 6]: 64.2 ± 7.6%; response vs control in vivo at 10 mg/kg [4, 6]: 40.7 ± 2.4%
Cc1cc(NS(C)(=O)=O)ccc1-n1c(CCC(=O)O)ccc1-c1ccc(-n2ccnc2C)s1 [Compound 171, 3-(5-(5-(2-methyl-1H-imidazol-1-yl)thiophen-2-yl)-1-(2-methyl-4-(methyl-sulfonamido)-phenyl)-1H-pyrrol-2-yl)propanoic acid] | efficacious | 63 | 78.7 ± 8.1 | – | – | – | –
